In patent US20120058133A1, “INHIBITION OF TRNA SYNTHETASES AND THERAPEUTIC APPLICATIONS THEREOF” (President and Fellows of Harvard College, priority 2009, published 2012):

How the values were obtained:
[1] = test system: translation in rabbit reticulocyte lysate; assay: In vitro translation in rabbit reticulocyte lysate (RRL); type: biochemical; details: for translation of luciferase RNA in RRL: standard amino acid mix
Procedure: FIG. 23. HF and FF inhibit prolyl tRNA synthetase activity in vitro. […] Rabbit reticulocyte lysate (RRL) was incubated with luciferase mRNA and translation quantitated in a luminescence assay. A high concentration of mixed or individual amino acids (1 mM of each) was added to rescue translational inhibition. AA Mix 1: Asn, Arg, Val, Glu, Gly; AA Mix2: Lys, Ile, Tyr, Asp, Trp; Mix 3: His, Met, Leu, Ala, Thr; Mix 4: Ser, Phe, Pro, Gln. […] Note log scale of y axis.
Inhibitors (FIG. 22) and proline were assayed as described in FIG. 23A. Note log scale at Y axis. Error bars reflect standard deviation of triplicate determinations.
Short myc-tagged polypeptides of identical sequence (see Example 9, “Materials and Methods”) with the exception that NoPro lacks proline, while ProPro contains a proline dipeptide, were translated in RRL in the presence of indicated inhibitors. Translation was examined by anti-myc Western blot.
Note log scale of Y axis.
Translation in vitro was performed using rabbit reticulocyte lysates and luciferase mRNA as template. Translation was measured as arbitrary units of luciferase activity using a luminometer based luminescence assay. Log scale presentation of background-subtracted data is shown.

[2] = Cell-based assays (not specified)
[3] = test system: murine CD4+ CD25− T cells; assay: Th17 differentiation of activated CD4+ CD25− T cells (TGFβ plus IL-6; IL-17+ IFNγ− cells); type: cell-based, mouse; details: for IL-17 production / Th17 differentiation: 0.2 mM L-tryptophanol
Procedure: Purified CD4^+ CD25^− T cells were activated in vitro as previously described (Djuretic et al., Nat. Immunol. 8:145, 2007) using 0.3 μg/ml hamster anti-mouse CD3 (clone 145-2C11) (ATCC—Manassas, Va.) and 0.5 μg/ml hamster anti-mouse CD28 (BD Pharmingen—San Jose, Calif.). Activated cell cultures were differentiated using the following combinations of cytokines and antibodies: iTreg-recombinant human TGFβ1 (3 ng/ml—R&D systems, Minneapolis, Minn.), Th17-TGFβ1 (3 ng/ml) plus recombinant mouse IL-6 (30 ng/ml—R&D systems). Th1 and Th2 differentiation was performed as previously described (Djuretic et al., Nat. Immunol. 8:145, 2007). Human IL-2 supernatant (National Cancer Institute) was used in culture at 0.01 U/ml and was added at 48 hours-post activation when T cells were split into tissue culture wells lacking CD3 and CD28 antibodies, with the exception of Th17 cultures that were maintained in the absence of exogenous IL-2. CD8^+ T cells were activated with 1 μg/ml anti-CD3 and 1 μg/ml anti-CD28 and were expanded in 0.1 U/ml IL-2 until day 6 post activation. CD43-depleted B cells were activated in vitro by culturing with 25 μg/ml LPS (Sigma—St. Louis, Mo.) for 3-4 days in the presence or absence of TGFβ. All reagents (see below) were added at the time of T cell activation and again at 48 hours post activation unless indicated otherwise. For some experiments, purified CD4^+ CD25^− T cells, CD8^+ T cells or B cells were labeled with 1 μM CFSE (Invitrogen) prior to activation in accordance with manufacturer's instructions. Human T cell activation was performed by plating purified monocytes in a 96-well flat bottom plate at a concentration of 2×10^4 cells per well in complete medium overnight. 10^5 purified human memory T cells were added to monocyte cultures in the presence of soluble anti-CD3/anti-CD28 beads (Dynabeads, Invitrogen). T cells were expanded in the presence HF or MAZ1310 for up to 6 days.
MAZ1310 (Kamberov, Ph.D. Dissertation, Harvard University, 2008) was generated by chemical derivatization of halofuginone and was used at equal concentrations as a negative control. HF and MAZ1310 were prepared as 100 mM stock solutions in DMSO and diluted to the indicated concentrations. SB-431542 (Inman et al., Mol. Pharmacol. 62:65, 2002) (Tocris bioscience—Ellisville, Mo.) was prepared as a 10 mM stock solution in DMSO and was used in culture at 10 μM. L-tryptophanol was prepared as a 20 mM stock solution in 0.1 M NaOH, pH 7.4 and was used at 0.2 mM. For amino acid starvation experiments, T cells were activated and differentiated as above in D-MEM medium without L-cysteine and L-methionine (Invitrogen—Carlsbad, Calif.), or D-MEM medium without L-leucine. Stocks containing 20 mM L-cysteine (Sigma—St. Louis, Mo.) plus 10 mM L-methionine (Sigma), or 400 mM L-leucine (Sigma) were prepared in ddH2O, pH 1.0 and were added to medium at the indicated concentrations.
For detection of intracellular cytokines in murine cells, cultured T or B cells were stimulated with 10 nM PMA (Sigma) and […] (Sigma) for 4-5 hours in the presence of 10 mM brefeldin A (Sigma). Stimulated cells were harvested, washed with PBS and fixed with PBS plus 4% paraformaldehyde at room temperature for 20 minutes. Cells were then washed with PBS, permeabilized with PBS supplemented with 1% BSA and 0.5% saponin (Sigma) at room temperature for 10 minutes before cytokine-specific antibodies were added and incubated with cells for an additional 20 minutes at room temperature.

[4] = test system: TGFβ signaling; assay: Lymphocyte responses to TGFβ (Smad phosphorylation and others); type: cell-based, mouse; details: low dose HF; 10 μM SB-431542
Procedure: FIG. 8. […] FIG. 8A is a set of FACS analyses of CD4^+ CD25^− T cells activated in Th1 or Th2 polarizing conditions, either in the presence or absence of TGFβ. DMSO, 10 nM HF, 10 nM MAZ1310, or 10 μM SB-431542 added as indicated at the time of activation. Intracellular cytokine staining was performed on expanded T cells on day 5.
FIG. 8B is a set of FACS analyses of CD8^+ T cells activated in the presence or absence of TGFβ and cultured with DMSO, 10 nM HF, 10 nM MAZ1310, or 10 μM SB-431542. Expanded cells were restimulated on day 5 and intracellular staining was performed.
FIG. 8C is a set of FACS analyses of CFSE-labeled B cells activated by LPS stimulation in the presence or absence of TGFβ plus DMSO, 10 nM HF, 10 nM MAZ1310, or 10 μM SB-431542. Intracellular IL-6 production in B cells restimulated with PMA plus ionomycin, or cell-surface IgA expression was determined 4 days after activation.
FIG. 8D depicts western blot analyses of purified CD4^+ CD25^− T cells treated with DMSO, 40 nM MAZ1310, titrating concentrations of HF (2.5-40 nM) or 10 μM SB-431542 for 30 minutes in complete medium supplemented with 0.1% fetal calf serum. T cells were then activated in the presence or absence of 3 ng/ml TGFβ. Whole cell extracts were prepared after 1 hour of stimulation and western blot analyses were performed using the indicated antibodies. […]

[5] = test system: GCN2 phosphorylation / AAR pathway; assay: AAR pathway activation in MEFs (GCN2, eIF2a phosphorylation, CHOP); type: cell-based, mouse
Procedure: FIG. 24. Activation of the AAR in cells by HF/FF occurs through inhibition of proline utilization. FIG. 24A is a gel showing HF-induction of the AAR pathway is reversed by proline. MEFs were treated with the indicated concentration of HF or FF in the presence or absence of 2 mM Proline for 2 hours (left) or treated with 1 μM borrelidin in the presence or absence of 2 mM Threonine for 2 hours (right). Cells were lysed and assessed by anti-pGCN2 or anti-GCN2 Western blot. Data are representative of three separate experiments.
FIG. 24B is a gel showing HF induction of eIF2a phosphorylation and CHOP expression is GCN2 dependent. Wild Type or GCN2−/− MEFs were treated with 50 nM HF in the presence or absence of 2 mM proline. Cells were lysed at 2 hours post-HF addition (peIF2a) or 6 hours post-HF addition (CHOP) and analyzed for phosphoprotein or total protein levels by Western blot.

Question: For CC(C)(C)OC(=O)N1CCC[C@H](O)[C@H]1CC(=O)Cn1cnc2cc(Br)c(Cl)cc2c1=O [MAZ1310], which “translation of luciferase RNA in RRL” value [1] is on record?
Answer: no activity

Question: What about the “activity in cell-based assays” value [2] of the same compound?
Answer: lack activity

Question: Which results are given for N[C@H](CO)Cc1c[nH]c2ccccc12 [L-tryptophanol]?
Answer: IL-17 production / Th17 differentiation [3]: impaired IL-17 production; IL-17 production / Th17 differentiation ([3]; listed as tryptophanol): inhibited Th17 differentiation; Th17 differentiation ([3]; 1 mM Tryptophanol): inhibits Th17 differentiation

Question: With NC(=O)c1ccc(-c2nc(-c3ccc4c(c3)OCO4)c(-c3ccccn3)[nH]2)cc1 [SB-431542] as the compound, how does the “TGFβ-induced Smad phosphorylation and other lymphocyte responses to TGFβ” value [4] read?
Answer: abrogated all responses to TGFβ

Question: Which results are given for CC(=O)N1CCC[C@H](O)[C@H]1CC(=O)Cn1cnc2cc(Br)c(Cl)cc2c1=O [MAZ1442]?
Answer: translation of luciferase RNA in RRL [1]: no activity; activity in cell-based assays [2]: lack activity

Question: For O=C(C[C@H]1NCCC[C@@H]1O)Cn1cnc2ccccc2c1=O [FF, febrifugine], which “translation of NoPro polypeptide” value [1] is on record?
Answer: had no effect on the translation of NoPro

Question: And the “translation of ProPro polypeptide” value [1]?
Answer: prevented translation of ProPro

Question: What about the “rescue of translation inhibition by added purified EPRS” value ([1]; 80 ng or 0.5 μg EPRS) of the same compound?
Answer: rescued HF/FF-inhibition of protein translation

Question: What about the “rescue of translation inhibition by added amino acids” value ([1]; excess amino acids (1-2 mM)) of the same compound?
Answer: only proline could restore translation

Question: What about the “translation of luciferase RNA in RRL” value [1] of the same compound?
Answer: inhibited the translation of luciferase RNA

Question: And the “reversal of GCN2 phosphorylation by cognate amino acid” value ([5]; 2 mM proline or 2 mM threonine)?
Answer: abrogated by the addition of 2 mM proline

Question: What about the “GCN2 phosphorylation in fibroblasts” value ([5]; 2 hours, borrelidin 1 μM) of the same compound?
Answer: Stimulation of GCN2 phosphorylation
